Among the test systems are A498 renal; OVCAR-4 ovarian; OVCAR-8 ovarian; SF-268 CNS; SF-539 CNS; SK-MEL-2 melanoma; SK-MEL-5 melanoma; SN12C renal; SNB-19 CNS; U251 CNS; UACC-62 melanoma.
Test in all cases: inhibition of tumour cell growth, NCI panel, 48 h

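How tested: cells in 96-well plates exposed to compound for 48 hours at five concentrations. Abbreviation: GI50, concentration required for 50% inhibition of growth. Definition used: TGI = concentration required for complete inhibition of growth.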

On to `CC(C)=CCC/C(C)=C/CC/C(C)=C/[C@@H]1[C@@H](CO)[C@]1(C)CC/C=C(\C)CCC=C(C)C`, for which the TGI is greater than 100 µM in the assay on A498 renal; greater than 100 µM in the assay with OVCAR-4 ovarian; 32.7 µM in the assay on OVCAR-8 ovarian; 40.8 µM in the assay on SF-268 CNS; 59 µM in the assay with SF-539 CNS; greater than 100 µM in the assay on SK-MEL-2 melanoma. Further, the TGI in the assay with SK-MEL-5 melanoma, with SN12C renal, with SNB-19 CNS and in the assay on U251 CNS was greater than 100 µM in each case.
For `Cc1cc(N2CCOCC2)nc(N(CCCNc2ccnc3cc(Cl)ccc23)Cc2ccc3c(c2)OCO3)n1`, the GI50 is 1.51 µM in the assay with A498 renal; 1.85 µM in the assay with OVCAR-8 ovarian; 1.26 µM in the assay with SK-MEL-2 melanoma; 1.54 µM in the assay with SK-MEL-5 melanoma; 4.18 µM in the assay on SNB-19 CNS; 0.936 µM in the assay on U251 CNS. The TGI in the assay on A498 renal came to 3.42 µM; with OVCAR-8 ovarian, 4.09 µM; in the assay on SK-MEL-2 melanoma, 2.66 µM; with SK-MEL-5 melanoma, 2.88 µM; with SNB-19 CNS it was 35.7 µM; with U251 CNS it was 2.12 µM.
With `CC(Br)C(=O)c1ccc2cc(Br)c3ccccc3c2c1` (stereo unspecified), the TGI stood at 33.1 µM in the assay with A498 renal; 32.2 µM in the assay with OVCAR-4 ovarian; 27.5 µM in the assay on OVCAR-8 ovarian; 32.4 µM with SF-268 CNS; 26.5 µM with SK-MEL-2 melanoma; 27.3 µM in the assay with SK-MEL-5 melanoma. For the same compound, the TGI is 23.3 µM in the assay on SN12C renal, 32.7 µM with SNB-19 CNS, 26.5 µM in the assay with U251 CNS and 28.7 µM in the assay with UACC-62 melanoma.
For `NC(CCc1ccccc1)(C(=O)O)c1ccccc1` (stereo unspecified), the TGI in the assay with A498 renal, with OVCAR-4 ovarian, in the assay on OVCAR-8 ovarian, in the assay with SF-268 CNS, in the assay on SK-MEL-2 melanoma and with SK-MEL-5 melanoma was greater than 100 µM throughout. Besides, the TGI in the assay on SN12C renal, in the assay with SNB-19 CNS, in the assay with U251 CNS and in the assay with UACC-62 melanoma was greater than 100 µM throughout.
As to `CCOC(=O)C(C)OC(=O)c1ccc(C)cc1` (stereo unspecified), the TGI in the assay on A498 renal, with OVCAR-8 ovarian, in the assay with SF-268 CNS, with SF-539 CNS, in the assay with SK-MEL-2 melanoma and in the assay on SK-MEL-5 melanoma was greater than 100 µM in each case. Besides, the TGI in the assay with SN12C renal, in the assay with SNB-19 CNS, with U251 CNS and with UACC-62 melanoma was greater than 100 µM in each case.
As for `Clc1ccc(NCc2nnc(COc3ccc(OCc4nnc(CNc5ccc(Cl)cc5)o4)c(Cl)c3)o2)cc1`, the TGI in the assay with A498 renal was greater than 100 µM; in the assay on OVCAR-8 ovarian, greater than 100 µM; with SF-268 CNS, greater than 100 µM; in the assay with SK-MEL-2 melanoma, greater than 100 µM; in the assay with SK-MEL-5 melanoma it was 53.6 µM; in the assay on SN12C renal it was greater than 100 µM. Further, the TGI with SNB-19 CNS, in the assay with U251 CNS and in the assay on UACC-62 melanoma was greater than 100 µM in each case.
As to `C/C(=C\CNc1ncnc2nc(Cl)[nH]c12)CO`, the TGI in the assay with A498 renal, in the assay with OVCAR-4 ovarian, with OVCAR-8 ovarian, with SF-268 CNS, in the assay on SF-539 CNS and in the assay on SK-MEL-5 melanoma was greater than 100 µM in each case. Moreover, the TGI in the assay with SN12C renal and in the assay with SNB-19 CNS was greater than 100 µM in each case.
On to `CCN(CC)/[N+]([O-])=N/OC`, for which the TGI in the assay with A498 renal, in the assay with OVCAR-8 ovarian, with SF-268 CNS, with SF-539 CNS, in the assay on SK-MEL-2 melanoma and in the assay with SK-MEL-5 melanoma was greater than 100 µM throughout. Moreover, the TGI with SN12C renal, in the assay on SNB-19 CNS, with U251 CNS and in the assay on UACC-62 melanoma was greater than 100 µM throughout.
For `CCOC(=O)C(=CNC(Cc1c[nH]c2ccccc12)C(=O)OC)C(=O)OCC` (stereo unspecified), the TGI in the assay on A498 renal, in the assay with OVCAR-8 ovarian, with SF-268 CNS, with SF-539 CNS, with SK-MEL-2 melanoma and in the assay with SK-MEL-5 melanoma was greater than 100 µM throughout. Moreover, the TGI in the assay on SN12C renal, in the assay with SNB-19 CNS, in the assay on U251 CNS and with UACC-62 melanoma was greater than 100 µM each time.
On to `COC(=N)C(C)C`, for which the TGI in the assay on OVCAR-4 ovarian, in the assay with SF-268 CNS, in the assay with SF-539 CNS, with SK-MEL-5 melanoma, with SN12C renal and in the assay on SNB-19 CNS was greater than 100 µM throughout. Further, the TGI in the assay on U251 CNS and with UACC-62 melanoma was greater than 100 µM each time.
Take `O=C(N/N=C\c1ccc([N+](=O)[O-])cc1)Nc1ccccc1`: the TGI in the assay with A498 renal, with OVCAR-4 ovarian, with OVCAR-8 ovarian, in the assay with SK-MEL-2 melanoma, with SK-MEL-5 melanoma and in the assay on SN12C renal was greater than 100 µM in each case. Also, the TGI in the assay with SNB-19 CNS, in the assay on U251 CNS and in the assay on UACC-62 melanoma was greater than 100 µM each time.

Source of the values: PubChem BioAssay (NCI).
